Source: patent US7053095B2, “Triazole compounds as transforming growth factor (TGF) inhibitors” (Pfizer Inc., priority 2002, dated 2006)

Target: T1, TβRI (ALK-5) (Homo sapiens, UniProt P36897)
T1 construct: with same assay conditions using either the kinase domain of ALK5 with Smad3 as substrate; GST
T1 sequence (P36897 205-495 limits assumed): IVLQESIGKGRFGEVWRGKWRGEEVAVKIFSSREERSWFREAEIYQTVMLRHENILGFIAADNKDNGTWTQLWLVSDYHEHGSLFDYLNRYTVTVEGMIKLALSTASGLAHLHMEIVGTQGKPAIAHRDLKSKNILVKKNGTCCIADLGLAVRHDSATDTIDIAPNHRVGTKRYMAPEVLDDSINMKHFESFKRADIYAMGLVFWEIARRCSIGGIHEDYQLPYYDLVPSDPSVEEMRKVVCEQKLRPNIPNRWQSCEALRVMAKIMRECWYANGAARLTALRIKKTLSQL
Assay: ALK-5 (TβRI) kinase assay
Assay type: biochemical
Description: ALK-5 (TβRI) Kinase Assay Protocol
The kinase assays were performed with 65 nM GST-ALK5 and 84 nM GST-Smad3 in 50 mM HEPES, 5 mM MgCl2, 1 mM CaCl2, 1 mM dithiothreitol, and 3_M ATP. Reactions were incubated with 0.5_Ci of [33 P]_ATP for 3 h at 30° C. Phosphorylated protein was captured on P-81 paper (Whatman, Maidstone, England), washed with 0.5% phosphoric acid, and counted by liquid scintillation. Alternatively, Smad3 or Smad1 protein was also coated onto FlashPlate Sterile Basic Microplates (PerkinElmer Life Sciences, Boston, Mass.). Kinase assays were then performed in Flash-Plates with same assay conditions using either the kinase domain of ALK5 with Smad3 as substrate or the kinase domain of ALK6 (BMP receptor) with Smad1 as substrate. Plates were washed three times with phosphate buffer and counted by TopCount (Packard Bio-science, Meriden, Conn.). (Laping, N.J. et al. Molecular Pharmacology 62:58–64 (2002)).

IC50: ~58 nM
Compound: Cc1cccc(-c2n[nH]nc2-c2ccc3nnc(C)n3c2)n1 [Example 2, 3-Methyl-6-[5-(6-methyl-pyridin-2-yl)-2H-[1,2,3]triazol-4-yl]-[1,2,4]triazolo[4,3-a]pyridine]
